# In US10435371B2, “Multifunctional aminoquinoline therapeutic agent” (LOHOCLA RESEARCH CORPORATION, priority 2014, dated 2019):
# Assays:
# [1] = target: GABA site, GABA-A Receptor; experiment: PDSP radioligand displacement, [^3H]Muscimol; parameters: species or system rat; conditions: read-out: Binding constant Ki, GABA site, GABA-A Receptor
# cannabinoid CB1 receptor = target: T1, cannabinoid CB1 receptor (Homo sapiens, UniProt P21554); experiment: cAMP accumulation, HeLa cells transfected with CB1 receptor, D1 receptor and AC7; assay type: cell-based; conditions: for Effect on cAMP accumulation in the presence of dopamine: CB1 receptor, D1, AC7, DCUK-OEt 10 μM, ACEA 10 μM, FIG. 1
# T1 construct: expressed in transfected cells; host or cells: HeLa (ATCC), calcium phosphate transient transfection
# [2] = target: T2, GABA-A receptors (α1, β2, γ2s subunits) (UniProt P18508+P47870+P62813); experiment: Two-electrode voltage clamp, GABA-A receptors expressed in Xenopus oocytes; assay type: cell-based, rat α1 and γ2s, human β2; conditions: for Efficacy among five DCUK derivatives: potentiation of GABA response, FIG. 4C
# T2 construct: expressed in transfected cells; host or cells: Xenopus laevis oocytes injected with capped cRNAs (α1:β2:γ2s 2:2:20 ng)
# Protocol: Xenopus laevis frogs were obtained from Nasco (Fort Atkinson, Wis., USA). The complementary DNAs encoding the GABAA subunits rat α1 and γ2s and human β2 were provided by Dr. M. H. Akabas and Dr. Paul Whiting, respectively. The in vitro transcription of α1, β2, and γ2s subunits was performed using mMessage mMachine® (Life Technologies, Grand Island, N.Y.). After isolation of Xenopus laevis oocytes, they were injected with capped complementary RNAs encoding α1, β2, and γ2s subunits in a ratio 2:2:20 ng. The injected oocytes were incubated at 15° C. in sterilized Barth's solution [MBS; composition: 88 mM NaCl, 1 mM KCl, 10 mM HEPES, 0.82 mM MgSO4, 2.4 mM NaHCO3, 0.91 mM CaCl2), and 0.33 mM Ca(NO3)2, pH 7.5] for 3-5 days before recording. All surgery was performed according to an approved institutional protocol. The responses of GABAARs expressed in oocytes were studied through two-electrode voltage clamp (Oocyte Clamp OC-725C, Warner Instruments, Hamden, Conn.), recording through a POWERLAB 4/30 system (ADInstruments, Colorado Springs, Colo.). The oocyte was placed in a chamber perfused with MBS, and voltage-clamped at −70 mV.
# [3] = system: rats treated with Complete Freund's Adjuvant; experiment: Combination with morphine, CFA-induced thermal hyperalgesia (radiant heat paw withdrawal test); assay type: in vivo, rat; conditions: thermal hyperalgesia after CFA
# Protocol: Thermal Hypersensitivity Test (Radiant Heat Paw Withdrawal Test). Rats were placed in clear plastic chambers on a glass surface and were habituated for 15 minutes before testing. Thermal sensitivity was measured by using paw withdrawal latency to a radiant heat stimulus. A radiant heat source (i.e., infrared) was activated with a timer and focused onto the plantar surface of the left hind paw. A motion detector that halted both lamp and timer when the paw was withdrawn determined paw withdrawal latency. The latencies were measured before and after drug or vehicle administration. A maximum cutoff of 33 seconds was used to prevent tissue damage.
# [4] = system: alcohol-dependent male Wistar rats; experiment: Alcohol deprivation model of relapse drinking in alcohol-dependent rats; assay type: in vivo, rat; conditions: for Relapse drinking (alcohol intake after deprivation): FIG. 17
# Protocol: This model is thoroughly described in a paper by (Spanagel and Holter, 1999). The model consists of a conditioning phase where individually housed male Wistar rats are allowed ad libitum access to food and 0, 5, 10 and 20% alcohol solutions in a four-bottle choice paradigm. The rats are weighed every 3rd and 4th day and food and fluid consumption is measured. The positions of bottles are changed once a week and after two months of continuous alcohol access, rats are deprived of alcohol for two weeks. After the deprivation phase, all alcohol solutions are presented again for 5 weeks and the procedure is repeated for ˜1 year. At this point an alcohol deprivation phase is instituted. Pre-deprivation (baseline) drinking is recorded for 3-4 days and then all alcohol is taken from the animals and they are only given water to drink for two weeks. Following alcohol deprivation, alcohol intake (total grams of ethanol/kg body weight) and water intake (ml/kg body weight) are measured daily. The alcohol preference ratio is calculated as (ethanol consumption [g/kg])/(water consumption [ml/kg]).
# For this experiment, animals were divided into groups of 6-8 rats such that the mean baseline total alcohol intake was approximately the same (˜2.8 g/kg/day) across all groups. Baseline drinking was monitored followed by 14 days of alcohol deprivation. Each animal then received i.p. injections of DCUK-OEt twice daily at 12 hour intervals starting at 7 PM prior to the reintroduction of ethanol for a total of 3 (20 mg/kg) or 5 injections (75 mg/kg). Acamprosate, an already marketed agent for reducing relapse, was used as a positive control and four doses of 50 mg/kg or 200 mg/kg were injected over a two-day period. Alcohol bottles were re-introduced after the first (acamprosate) or second (DCUK-OEt) injection.
# ethanol dependent rats = experiment: Operant responding for alcohol in ethanol vapor-exposed dependent rats; assay type: in vivo, rat; conditions: FIG. 18
# Description: This example illustrates that ethanol dependent rats are motivated to work for ethanol reward during a period of forced abstinence and that DCUK-OEt reduces responding for the alcohol reward.
# The methods used in this study are extensively described in (Vendruscolo et al., 2012). The rats were first trained to self-administer ethanol in an operant chamber. The rats were given free-choice access to alcohol (10% w/v) and water for 1 day in their home cages to habituate them to the taste of alcohol. The rats were then subjected to an overnight session in the operant chambers with access to one lever that delivered water (FR1). Food was available ad libitum during this training. After 1 day off, the rats were subjected to a 2 hour session (FR1) for 1 day and a 1 hour session (FR1) the next day, with one lever delivering alcohol. All of the subsequent sessions lasted 30 minutes, and two levers were available (left lever: water; right lever: alcohol). Once trained, the rats were made dependent by chronic, intermittent exposure to alcohol vapors (Gilpin et al., 2008). They underwent cycles of 14 hours of ethanol exposure (blood alcohol levels during vapor exposure ranged between 150 and 250 mg %) and 10 hours in the absence of ethanol vapor, during which behavioral testing for acute withdrawal occurred (i.e., 6-8 hours after vapor was turned off, when brain and blood alcohol levels were negligible). Nondependent rats were those not exposed to alcohol vapor. Pharmacological testing occurred after at least 2 months of vapor exposure, when full dependence was observed. DCUKA-OEt was administered i.p. at the doses specified in FIG. 18, sixty minutes prior to placing the animal in the operant chamber. The vehicle for DCUK-OEt was injected in certain animals as a control.
# [5] = system: rats treated with Complete Freund's Adjuvant; experiment: Naltrindole reversal of the effect of DCUKA on CFA-induced neuropathic pain; assay type: in vivo, rat
# Protocol: Rats were tested for baseline mechanical pain threshold (von Frey test) and given an intraplantar injection of Complete Freunds Adjuvant (CFA) in the left hind paw.
# delta opiate receptor [6] = target: T3, delta opiate receptor (Homo sapiens, UniProt P41143); experiment: cAMP accumulation, HeLa cells transfected with D1 receptor, DOR and AC5; assay type: cell-based; parameters: expressed in transfected cells; conditions: not shown
# delta opiate receptor [7] = target: T3, delta opiate receptor; experiment: cAMP accumulation, HEK293 cells transfected with DA receptor, delta opiate receptor and AC7; assay type: cell-based; parameters: expressed in transfected cells; host or cells: HEK293 (ATCC), calcium phosphate transient transfection; conditions: naltrindole 10 μM
# [8] = system: rats treated with cisplatin; experiment: Reversal of cisplatin-induced neuropathic pain (von Frey mechanical pain threshold); assay type: in vivo, rat; conditions: cisplatin i.p. 7 mg/kg total, day 14; 30 mg/kg oral (equimolar to DCUKA and BCUKA); 1 and 2 hours; FIG. 6
# [9] = system: rats treated with streptozotocin; experiment: Combination with aspirin, STZ-induced neuropathic pain (von Frey); assay type: in vivo, rat; conditions: aspirin 25 mg/kg, 60 min before test; FIG. 16
# Protocol: After administration of streptozotocin (STZ) as described in Example 5, rats were tested for allodynia using a von Frey apparatus. Sixty minutes prior to testing, rats were divided into four groups. Group 1 received vehicle; group 2 received DCUKA; group 3 received aspirin; and group 4 received a combination of DCUKA and aspirin.
# [10] = system: rats treated with Complete Freund's Adjuvant; experiment: Combination with morphine, CFA-induced pain, mechanical pain threshold; assay type: in vivo, rat; conditions: FIG. 15 Panel A
# T2 sequence (P62813 28-455): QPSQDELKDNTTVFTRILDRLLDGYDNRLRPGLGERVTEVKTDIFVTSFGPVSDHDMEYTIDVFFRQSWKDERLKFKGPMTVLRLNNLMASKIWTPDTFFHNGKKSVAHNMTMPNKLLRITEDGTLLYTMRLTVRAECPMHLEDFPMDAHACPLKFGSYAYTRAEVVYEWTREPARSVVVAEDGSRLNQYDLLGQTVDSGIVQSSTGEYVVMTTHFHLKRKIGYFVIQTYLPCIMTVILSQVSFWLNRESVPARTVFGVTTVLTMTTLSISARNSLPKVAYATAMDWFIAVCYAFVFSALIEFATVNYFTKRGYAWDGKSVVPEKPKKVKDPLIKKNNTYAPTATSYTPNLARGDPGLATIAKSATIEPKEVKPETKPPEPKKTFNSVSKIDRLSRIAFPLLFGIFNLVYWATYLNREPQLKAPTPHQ
# T2 sequence (P47870 26-474 isoform P47870-1 limits assumed): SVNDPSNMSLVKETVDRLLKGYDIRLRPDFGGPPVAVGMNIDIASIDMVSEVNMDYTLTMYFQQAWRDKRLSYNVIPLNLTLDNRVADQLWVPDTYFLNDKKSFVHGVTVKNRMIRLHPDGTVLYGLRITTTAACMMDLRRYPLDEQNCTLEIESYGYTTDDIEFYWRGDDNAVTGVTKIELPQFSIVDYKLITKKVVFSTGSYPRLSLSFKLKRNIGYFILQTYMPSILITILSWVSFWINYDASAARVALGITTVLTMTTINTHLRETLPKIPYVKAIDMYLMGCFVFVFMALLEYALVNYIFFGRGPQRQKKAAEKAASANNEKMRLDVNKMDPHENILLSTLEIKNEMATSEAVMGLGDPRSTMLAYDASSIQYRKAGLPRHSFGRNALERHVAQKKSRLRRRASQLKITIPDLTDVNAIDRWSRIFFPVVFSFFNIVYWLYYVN
# T2 sequence (P18508 39-466): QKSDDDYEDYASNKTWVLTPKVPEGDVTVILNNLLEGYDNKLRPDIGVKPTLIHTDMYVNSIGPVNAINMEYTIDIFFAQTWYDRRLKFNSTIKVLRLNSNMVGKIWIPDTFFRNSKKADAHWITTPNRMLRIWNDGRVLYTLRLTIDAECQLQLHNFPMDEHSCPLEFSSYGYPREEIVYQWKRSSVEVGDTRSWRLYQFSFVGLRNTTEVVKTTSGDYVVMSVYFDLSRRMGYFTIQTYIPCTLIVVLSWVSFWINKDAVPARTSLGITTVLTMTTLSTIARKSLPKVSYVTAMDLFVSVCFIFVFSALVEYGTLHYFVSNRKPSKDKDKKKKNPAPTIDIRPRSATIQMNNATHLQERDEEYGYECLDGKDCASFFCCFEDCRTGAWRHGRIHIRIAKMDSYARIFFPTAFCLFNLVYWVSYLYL
# T1 sequence (P21554 whole entry): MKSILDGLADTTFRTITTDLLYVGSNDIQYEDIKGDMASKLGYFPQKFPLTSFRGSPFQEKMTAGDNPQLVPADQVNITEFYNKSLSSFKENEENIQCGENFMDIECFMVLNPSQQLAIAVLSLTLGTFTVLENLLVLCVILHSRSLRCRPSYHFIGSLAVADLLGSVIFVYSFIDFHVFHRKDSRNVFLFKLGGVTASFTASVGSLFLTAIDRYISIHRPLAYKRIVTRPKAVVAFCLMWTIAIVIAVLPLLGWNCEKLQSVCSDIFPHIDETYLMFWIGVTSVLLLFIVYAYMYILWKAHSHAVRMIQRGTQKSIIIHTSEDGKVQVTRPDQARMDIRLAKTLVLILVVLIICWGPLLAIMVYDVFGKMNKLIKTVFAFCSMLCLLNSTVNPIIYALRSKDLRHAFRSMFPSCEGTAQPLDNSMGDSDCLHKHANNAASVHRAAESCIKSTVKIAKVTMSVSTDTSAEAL
# T3 sequence (P41143 whole entry): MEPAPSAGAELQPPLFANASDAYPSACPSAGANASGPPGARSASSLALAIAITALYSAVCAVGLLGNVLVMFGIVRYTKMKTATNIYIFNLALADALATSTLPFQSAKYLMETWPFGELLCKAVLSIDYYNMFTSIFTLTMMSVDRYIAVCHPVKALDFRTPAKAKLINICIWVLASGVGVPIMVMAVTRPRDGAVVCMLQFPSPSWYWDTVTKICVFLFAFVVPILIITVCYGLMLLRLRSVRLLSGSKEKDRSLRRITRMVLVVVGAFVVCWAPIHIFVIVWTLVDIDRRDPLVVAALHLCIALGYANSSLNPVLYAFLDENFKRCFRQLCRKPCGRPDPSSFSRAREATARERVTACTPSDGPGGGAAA
compound,measurement,setting,value
CCOC(=O)c1cc(NC(=O)N(c2ccccc2)c2ccccc2)c2c(Cl)cc(Cl)cc2n1 [DCUK-OEt],Ki,[1],1700 ± 300 nM
same,Character of action at the CB1 cannabinoid receptor,"cannabinoid CB1 receptor; AC7, alone and together with ACEA",weak partial agonist
same,Effect on cAMP accumulation in the presence of dopamine,cannabinoid CB1 receptor,significant increase in cAMP accumulation
same,Character of action at the GABA-A receptor,[2]; FIG. 4A,positive allosteric modulators (PAM)
same,GABA-induced chloride currents,"[2]; co-applied with EC10 GABA, FIG. 4A",significantly enhanced GABA-induced currents
same,Efficacy among five DCUK derivatives,[2],most efficacious
same,"Chloride currents, compound alone","[2]; without GABA, FIG. 4A",no effect on chloride currents by themselves
same,Antihyperalgesic response,[3]; 6.4 mg of DCUK-OEt combined with 0.2 mg/kg morphine,40%
same,Relapse drinking (alcohol intake after deprivation),"[4]; 20 mg/kg i.p. twice daily, 3 injections","transient, but significant, reduction in relapse drinking"
same,Water consumption,"[4]; 75 mg/kg DCUK-OEt, data not shown",increased consumption of water
same,Relapse drinking (alcohol intake after deprivation),"[4]; 75 mg/kg i.p. twice daily, 5 injections",almost complete abolition of alcohol intake
same,Alcohol self-administration,"ethanol dependent rats; 20 mg/kg i.p., 60 min before session, ethanol vapor-exposed rats",brought the ethanol vapor exposed rats down to the same level of self-administration as non-ethanol pretreated control rats
same,Lever pressing for ethanol,"ethanol dependent rats; 35 and 50 mg/kg i.p., alcohol-dependent rats",reduced lever pressing for ethanol to even lower levels
same,Lever pressing for water,"ethanol dependent rats; all doses tested, alcohol dependent rats",No effect
"CCCC(=O)c1cc(NC(=O)N(c2ccccc2)c2ccccc2)c2c(Cl)cc(Cl)cc2n1 [DCUK-butanone, 3-(2-Butyryl-5,7-dichloroquinolin-4-yl)-1,1-diphenylurea]",Efficacy among five DCUK derivatives,[2],most efficacious
"Oc1ccc2c3c1O[C@H]1c4[nH]c5ccccc5c4C[C@@]4(O)[C@@H](C2)N(CC2CC2)CC[C@]314 [Naltrindole, reference compound]",Effect of intraplantar naltrindole on the DCUKA effect,"[5]; Naltrindole 10 μg per paw s.c. 45 min after DCUKA 50 mg/kg oral, tested 15 min later",reversed the anti-allodynic effect of DCUKA
same,Effect of naltrindole alone on pain threshold,[5]; Naltrindole 10 μg per paw with vehicle,no effect on its own
same,Effect of DOR antagonist on the DCUKA inhibition of cAMP accumulation,delta opiate receptor [6],reversed
same,Effect of DOR antagonist on the BCUKA-induced cAMP increase,delta opiate receptor [7],reversed
"CC(=O)NCCCS(=O)(=O)O [acamprosate, reference compound]",Relapse drinking (alcohol intake after deprivation),"[4]; acamprosate 50 mg/kg, four doses over two days, positive control","transient, but significant, reduction in relapse drinking"
"NCC1(CC(=O)O)CCCCC1 [Gabapentin, gabapentin, reference compound]","Mechanical pain threshold, ratio to baseline",[8],did not significantly reverse
"CC(=O)Oc1ccccc1C(=O)O [aspirin, reference compound]","Effect on allodynia, alone",[9],do not have any significant effect on allodynia
"CN1CC[C@]23c4c5ccc(O)c4O[C@H]2[C@@H](O)C=C[C@H]3[C@H]1C5 [morphine, reference compound]","Analgesia, each agent alone at the dose used for the combination",[10],ineffective in producing analgesia
same,Antihyperalgesic response,[3]; morphine alone 0.2 mg/kg,~20%
"CCCCC/C=C\C/C=C\C/C=C\C/C=C\CCCC(=O)NCCCl [ACEA, reference compound]",Effect on cAMP accumulation in the presence of dopamine,cannabinoid CB1 receptor,increased the accumulation of cAMP
